{"source": "patent US20080249317A1", "about": "(APOTEX INC., priority 2007, published 2008)", "key": {"[1]": {"conditions": "acidic medium such as gastric fluid; background statement; cited from earlier work"}, "[2]": {"test": "Dissolution of 1 gram of crystalline carvedilol phosphate in methanol", "assay_type": "physicochemical", "text": "The improved solubility by the addition of acetic acid is exemplified by the following results."}}, "note": "Structures can show the parent of a compound that is named as a salt."}
{"molecule": "COc1ccccc1OCCNCC(O)COc1cccc2[nH]c3ccccc3c12", "note": "(stereo not drawn) [hydrochloride salt, 1,1-(9H-Carbazol-4-yloxy)-3-[[2-(2-methoxyphenoxy)ethyl]amino]-2-propanol]", "values": [{"measurement": "solubility", "setting": "[1]", "result": "reduced solubility"}]}
{"molecule": "carvedilol phosphate [crystalline carvedilol phosphate]", "values": [{"measurement": "methanol in which a solution was formed", "setting": "[2]; containing 2% acetic acid (w/w relative to the carvedilol), solution formed rapidly", "result": 3, "unit": "mL"}, {"measurement": "methanol required for dissolution", "setting": "[2]; in the absence of acetic acid", "result": "about 100 mL"}]}
